One assay has as its system HIV1 IIIb. In words: microbe, parasite or virus in culture. As to conditions: Human immunodeficiency virus 1, IIIB; for viability at 10 µg/mL: 10 ug/ml; for viability at 80.2 µg/mL: 80.2 ug/ml; for viability at 23.8 µg/mL: 23.8 ug/ml; for viability at 14 µg/mL: 14 ug/ml; for viability at 140 µg/mL: 140 ug/ml; for viability at 38 µg/mL: 38 ug/ml; for viability at 35.2 µg/mL: 35.2 ug/ml; for viability at 20.7 µg/mL: 20.7 ug/ml; for viability at 3.52 µg/mL: 3.52 ug/ml. Type of assay: cell-based. In a few lines:
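Human host cells infected with HIV1 IIIb (virus-producing H9 cells or cell-free virus) and incubated seven days with compound. Viable cells measured by XTT formazan absorbance; response expressed as % of uninfected controls against virus kill %. Some cultures redosed after 3 days.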

A further assay addresses T1, porcine Renin (Sus scrofa, UniProt A0A287APG1).
T1 construct: purchased Sigma
Put plainly: Porcine Renin cleavage of porcine tetradecapeptide (HPLC). It is filed as biochemical. As to conditions: 0.5 μl of 50 μg/μl inhibitor in DMSO in 50 μl; pH 6.00, room temperature, 70 min; relative to uninhibited control. An excerpt: Renin Activity: Porcine Renin Cleavage of Porcine Tetradecapeptide
Proteolytic enzymes are ubiquitous in many living systems. Renin is an asparxyl protease found in mammals which is responsible for the regulation of blood pressure. Structural and functional similarities between Renin and retroviral proteases have been previously noted (Pearl, L. H., Taylor, W. R., (1987) Nature, 329, 351-354). Consequently, successful therapeutic inhibition of retroviral proteases depends on the ability of the inhibitor to inhibit the retroviral enzyme while having a greatly diminished effect on normally occurring enzymes like Renin. The failure to inhibit the desired enzyme selectively may have an adverse effect on normal biochemical functions. The similarity of Renin to retroviral proteases and its viral normal bodily function makes it an attractive system in which to examine inhibitory selectivity.
Renin activity was determined by a method similar to that described above for the HIV protease. A solution containing 0.37 m unit (0.5 μl of stock solution containing 0.75 m unit/μl) of porcine Renin (Sigma) was added to 5 μg of porcine angiotensinogen in 50 μl of 0.1 M citrate-phosphate buffer (pH 6.00) containing 0.25% NP-40. A DMSO solution containing the inhibitor (0.5 μl of a 50 μg/μl solution) was added and the reaction was allowed to incubate at room temperature for 70 min. The entire mixture was analyzed by HPLC chromatographic analysis was perforemd on a 4.6×250 mm Lichrosorb RP-18 column eluting with a gradient of 0-50% acetonitrile in 0.02 M KH2 Po4 (pH 4.7) over 30 min monitoring absorbance at 206 nm. Appearance of both the tetrapeptide and the decapeptide products may be monitored under these conditions. Enzyme activity is expressed as the amount of tetrapeptide produced relative to an uninhibited control, and are summarized in Table 3 below.

A further assay concerns HIV-2 protease. In words: HIV protease cleavage of nonapeptide (HPLC). As to conditions: 0.5 μl of 10 μg/μl inhibitor in DMSO per 10 μl reaction; pH 6.5, room temperature; pentapeptide product relative to DMSO control; sampled at ca. 16 and 40 hr (time not given). Type of assay: biochemical. The gist of the method:
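Nonapeptide substrate Val-Ser-Gln-Asn-Tyr-Pro-Ile-Val-Gln-NH2 incubated with protease (ca. 100 ng) in 200 mM sodium phosphate, 1 M NaCl, 5% glycerol, 0.25% NP-40, pH 6.5, at room temperature with inhibitor added from a 10 μg/μl DMSO stock. Samples taken at ca. 16 and 40 h; RP-HPLC (206 nm) measured pentapeptide product relative to DMSO control.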

Where two headings read alike, the source gives them in different places.

T1 sequence (A0A287APG1 24-407): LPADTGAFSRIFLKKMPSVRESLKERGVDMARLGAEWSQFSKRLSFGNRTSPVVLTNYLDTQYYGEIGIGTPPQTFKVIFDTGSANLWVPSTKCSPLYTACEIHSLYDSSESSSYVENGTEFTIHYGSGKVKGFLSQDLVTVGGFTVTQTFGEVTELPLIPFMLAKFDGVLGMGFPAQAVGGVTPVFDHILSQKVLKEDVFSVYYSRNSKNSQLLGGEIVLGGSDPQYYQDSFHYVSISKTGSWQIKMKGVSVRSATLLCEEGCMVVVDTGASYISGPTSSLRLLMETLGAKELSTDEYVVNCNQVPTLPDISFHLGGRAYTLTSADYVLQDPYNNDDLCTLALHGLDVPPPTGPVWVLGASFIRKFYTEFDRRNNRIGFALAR

On to `CCCCCCC[C@H]1O[C@H]1CO` [Example 15, (2S-cis)-3-Heptyloxirane Methanol], for which the viability at 92 µg/mL in the assay with HIV1 IIIb (168 h, read-out: Antiviral Effect (viable cells as % of uninfected controls), run 3, 92 ug/ml, source V (cell free virus), virus kill 35.0%) was 60.8%. The viability at 10 µg/mL in the assay on HIV1 IIIb (168 h, read-out: Antiviral Effect (viable cells as % of uninfected controls), run 4, source V (cell free virus), virus kill 57.0%) worked out at 78.2%; in the assay on HIV1 IIIb (168 h, read-out: Antiviral Effect (viable cells as % of uninfected controls), run 5, source V (cell free virus), virus kill 26.0%) it was 58.6%. The viability at 21.6 µg/mL with HIV1 IIIb (168 h, read-out: Antiviral Effect (viable cells as % of uninfected controls), run 6*, 21.6 ug/ml, source V (cell free virus), virus kill 31.0%, culture redosed with compound after 3 days) came out at 32%. The viability at 46 µg/mL in the assay on HIV1 IIIb (H9, 168 h, read-out: Antiviral Effect (viable cells as % of uninfected controls), run 1, 46 ug/ml, source C (virus producing H9 cells), virus kill 15.0%) was found to be 58.3%. Also, the viability at 4.6 µg/mL in the assay with HIV1 IIIb (H9, 168 h, read-out: Antiviral Effect (viable cells as % of uninfected controls), run 2, 4.6 ug/ml, source C (virus producing H9 cells), virus kill 13.0%) worked out at 11.8%. Moreover, on porcine Renin, the “Percent control (tetrapeptide produced)” value is on record as 86%. In addition, the “Percent Control Cleavage of Nonapeptide HIV-1 Cleavage Site Fragment” value (from here on “Percent Control Cleavage”) with HIV-2 protease is listed as 59%.

With `CCCCCCC[C@@H]1O[C@@H]1CO` [Example 16, (2R-cis)-3-Heptyloxirane Methanol], in the assay on HIV1 IIIb (168 h, read-out: Antiviral Effect (viable cells as % of uninfected controls), run 4, 160 ug/ml, source V (cell free virus), virus kill 40.0%), the viability at 160 µg/mL came to 62.6%. The viability at 80.2 µg/mL with HIV1 IIIb (168 h, read-out: Antiviral Effect (viable cells as % of uninfected controls), run 5, source V (cell free virus), virus kill 60.0%) worked out at 97.3%; in the assay with HIV1 IIIb (168 h, read-out: Antiviral Effect (viable cells as % of uninfected controls), run 6, source V (cell free virus), virus kill 30.0%) it was 88.6%; with HIV1 IIIb (H9, 168 h, read-out: Antiviral Effect (viable cells as % of uninfected controls), run 2, source C (virus producing H9 cells), virus kill 15.0%) it was 69.6%; with HIV1 IIIb (H9, 168 h, read-out: Antiviral Effect (viable cells as % of uninfected controls), run 3, source C (virus producing H9 cells), virus kill 15.0%), 84.5%. Moreover, the viability at 23.8 µg/mL in the assay with HIV1 IIIb (168 h, read-out: Antiviral Effect (viable cells as % of uninfected controls), run 7, source V (cell free virus), virus kill 22.0%) was determined as 35.9%; in the assay on HIV1 IIIb (168 h, read-out: Antiviral Effect (viable cells as % of uninfected controls), run 8*, source V (cell free virus), virus kill 28.0%, culture redosed with compound after 3 days) it was 39.7%. Also, the viability at 10.6 µg/mL in the assay on HIV1 IIIb (H9, 168 h, read-out: Antiviral Effect (viable cells as % of uninfected controls), run 1, 10.6 ug/ml, source C (virus producing H9 cells), virus kill 14.0%) came out at 27.3%. Besides, on porcine Renin, the “Percent control (tetrapeptide produced)” value was 96%. In the assay with HIV-2 protease, the “Percent Control Cleavage” value is on record as 42%.

Regarding `CCCCCCCCC[C@H]1O[C@H]1C(N)=O` [Example 23, (2R-cis)-3-Nonyloxiranecarboxy Amide], the viability at 2.8 µg/mL with HIV1 IIIb (168 h, read-out: Antiviral Effect (viable cells as % of uninfected controls), run 7, 2.8 ug/ml, source V (cell free virus), virus kill 19.0%) was found to be 108%. Besides, the viability at 7.6 µg/mL in the assay with HIV1 IIIb (168 h, read-out: Antiviral Effect (viable cells as % of uninfected controls), run 8, 7.6 ug/ml, source V (cell free virus), virus kill 30.0%) amounted to 40.2%. Also, the viability at 3.8 µg/mL in the assay with HIV1 IIIb (168 h, read-out: Antiviral Effect (viable cells as % of uninfected controls), run 9, 3.8 ug/ml, source V (cell free virus), virus kill 52.0%) was found to be 60.1%. Also, the viability at 14 µg/mL in the assay with HIV1 IIIb (168 h, read-out: Antiviral Effect (viable cells as % of uninfected controls), run 10, source V (cell free virus), virus kill 52.0%) turned out to be 60.1%; in the assay with HIV1 IIIb (H9, 168 h, read-out: Antiviral Effect (viable cells as % of uninfected controls), run 6, source C (virus producing H9 cells), virus kill 17.0%) it was 16%. In addition, the viability at 380 µg/mL in the assay with HIV1 IIIb (168 h, read-out: Antiviral Effect (viable cells as % of uninfected controls), run 11, 380 ug/ml, source V (cell free virus), virus kill 20.0%) stood at 24%. For the same compound, the viability at 140 µg/mL was 31% in the assay on HIV1 IIIb (168 h, read-out: Antiviral Effect (viable cells as % of uninfected controls), run 12, source V (cell free virus), virus kill 20.0%) and 25.1% in the assay on HIV1 IIIb (H9, 168 h, read-out: Antiviral Effect (viable cells as % of uninfected controls), run 4, source C (virus producing H9 cells), virus kill 14.0%). For the same compound, the viability at 27 µg/mL with HIV1 IIIb (168 h, read-out: Antiviral Effect (viable cells as % of uninfected controls), run 13*, 27 ug/ml, source V (cell free virus), virus kill 22.0%, culture redosed with compound after 3 days) came to 79.6%. Further, the viability at 28 µg/mL in the assay on HIV1 IIIb (H9, 168 h, read-out: Antiviral Effect (viable cells as % of uninfected controls), run 1, 28 ug/ml, source C (virus producing H9 cells), virus kill 6.0%) amounted to 75.6%. Besides, the viability at 76 µg/mL with HIV1 IIIb (H9, 168 h, read-out: Antiviral Effect (viable cells as % of uninfected controls), run 2, 76 ug/ml, source C (virus producing H9 cells), virus kill 17.0%) turned out to be 28.5%. The viability at 38 µg/mL in the assay on HIV1 IIIb (H9, 168 h, read-out: Antiviral Effect (viable cells as % of uninfected controls), run 3, source C (virus producing H9 cells), virus kill 14.0%) was determined as 35.1%; with HIV1 IIIb (H9, 168 h, read-out: Antiviral Effect (viable cells as % of uninfected controls), run 5, source C (virus producing H9 cells), virus kill 17.0%), 17%. Further, the “Percent control (tetrapeptide produced)” value at porcine Renin worked out at 88%. The “Percent Control Cleavage” value in the assay on HIV-2 protease is listed as 102%.

Take `CCCCCCCCC[C@@H]1O[C@@H]1C(N)=O` [Example 24, (2S-cis)-3-Nonyloxiranecarboxy Amide]: the viability at 35.2 µg/mL in the assay on HIV1 IIIb (168 h, read-out: Antiviral Effect (viable cells as % of uninfected controls), run 5, source V (cell free virus), virus kill 54.6%) was determined as 73%; in the assay with HIV1 IIIb (H9, 168 h, read-out: Antiviral Effect (viable cells as % of uninfected controls), run 1, source C (virus producing H9 cells), virus kill 16.0%) it was 73%. Further, the viability at 20.7 µg/mL in the assay with HIV1 IIIb (168 h, read-out: Antiviral Effect (viable cells as % of uninfected controls), run 6, source V (cell free virus), virus kill 54.6%) was 71.4%; in the assay on HIV1 IIIb (168 h, read-out: Antiviral Effect (viable cells as % of uninfected controls), run 8, source V (cell free virus), virus kill 26.0%), 34%; with HIV1 IIIb (H9, 168 h, read-out: Antiviral Effect (viable cells as % of uninfected controls), run 2, source C (virus producing H9 cells), virus kill 16.0%) it was 67.4%. Besides, the viability at 3.52 µg/mL with HIV1 IIIb (168 h, read-out: Antiviral Effect (viable cells as % of uninfected controls), run 7, source V (cell free virus), virus kill 26.0%) worked out at 28.1%; in the assay with HIV1 IIIb (H9, 168 h, read-out: Antiviral Effect (viable cells as % of uninfected controls), run 3, source C (virus producing H9 cells), virus kill 9.0%) it was 11.3%. Besides, the viability at 1.34 µg/mL in the assay on HIV1 IIIb (168 h, read-out: Antiviral Effect (viable cells as % of uninfected controls), run 9, 1.34 ug/ml, source V (cell free virus), virus kill 20.0%) was 41.7%. For the same compound, the viability at 0.135 µg/mL in the assay with HIV1 IIIb (168 h, read-out: Antiviral Effect (viable cells as % of uninfected controls), run 10*, 0.135 ug/ml, source V (cell free virus), virus kill 23.0%, culture redosed with compound after 3 days) was determined as 114%. Also, the viability at 2.07 µg/mL in the assay on HIV1 IIIb (H9, 168 h, read-out: Antiviral Effect (viable cells as % of uninfected controls), run 4, 2.07 ug/ml, source C (virus producing H9 cells), virus kill 9.0%) was found to be 10.5%. In addition, the “Percent control (tetrapeptide produced)” value on porcine Renin is on record as 106%. Moreover, the “Percent Control Cleavage” value with HIV-2 protease is reported as 113%.
